In ChEMBL document CHEMBL1131262, “Comprehensive study on structure-activity relationships of rifamycins: discussion of molecular and crystal structure and spectroscopic and thermochemical properties of rifamycin O” (J Med Chem, 1998):
≈ marks a conversion by molar mass, not a printed value. Calls of active or inactive are those of the source. No cut-off for these calls is given here.

How the values were obtained:
Escherichia coli [1] = assay: The compound is evaluated for inhibitory concentration against Escherichia coli and is expressed as minimum inhibitory concentration (MIC); Non active; type: functional, organism-based
Nucleic Acid [2] = assay: Inhibitory concentration against DNA dependent RNA polymerase in E. coli; Non active; type: nucleic-acid assay, Escherichia coli
Escherichia coli [3] = assay: The compound is evaluated for inhibitory concentration against Escherichia coli and is expressed as minimum inhibitory concentration (MIC).; type: functional
Nucleic Acid [4] = assay: Inhibitory concentration against DNA dependent RNA polymerase in Escherichia coli; type: nucleic-acid assay
Escherichia coli [5] = assay: The compound is evaluated for inhibitory concentration against Escherichia coli and is expressed as minimum inhibitory concentration (MIC); active; type: functional, organism-based
[6] = Escherichia coli, read-out: MIC

SMILES	MIC (Escherichia coli [1])	IC50 (Nucleic Acid [2])	IC50 (Nucleic Acid [4]) [nM/unit]	also measured
COC1/C=C/OC2(C)Oc3c(C)c(O)c4c(c3C2O)C(=O)C=C(NC(=O)/C(C)=C\C=C\C(C)C(OC(C)=O)C(C)C(O)C(C)C(OC(C)=O)C1C)C4=O (configuration not stated)	inactive	Not Active	–	–
CO[C@H]1/C=C/O[C@@]2(C)Oc3c(C)c(O)c4c(O)c(cc(O)c4c3C2=O)NC(=O)/C(C)=C\C=C\[C@H](C)[C@H](O)[C@@H](C)[C@@H](O)[C@@H](C)[C@H](OC(C)=O)[C@@H]1C (stereo in doubt; form 2) [RIFAMYCIN]	–	–	85	MIC (Escherichia coli [3]): 25 µg/mL (≈ 35.8 µM)
COC1/C=C/OC2(C)Oc3c(C)c(O)c4c(c3C2=O)-c2[n-]c3ccc(Br)c[n+]3c2/C(=N/C(=O)/C(C)=C\C=C\C(C)C(O)C(C)C(O)C(C)C(OC(C)=O)C1C)C4=O (configuration not stated)	–	–	–	MIC (Escherichia coli [5]): Active
CO[C@H]1/C=C/O[C@@]2(C)Oc3c(C)c(O)c4c(O)c(cc(O)c4c3C2=O)NC(=O)/C(C)=C\C=C\[C@H](C)[C@H](O)[C@@H](C)[C@@H](O)[C@@H](C)[C@H](OC(C)=O)[C@@H]1C (stereo in doubt; form 1) [RIFAMYCIN]	–	–	15	MIC (Escherichia coli [3]): 3 µg/mL (≈ 4.3 µM)
CO[C@H]1/C=C/O[C@@]2(C)Oc3c(C)c(O)c4c(O)c(c(/C=N/N5CCN(C)CC5)c(O)c4c3C2=O)NC(=O)/C(C)=C\C=C\[C@H](C)[C@H](O)[C@@H](C)[C@@H](O)[C@@H](C)[C@H](OC(C)=O)[C@@H]1C [RIFAMPIN]	–	–	–	MIC (Escherichia coli [3]; [6]): 20 µg/mL (≈ 24.3 µM)
COC1/C=C/OC2(C)Oc3c(C)c(O)c4c(c3C2=O)C2(C=C(NC(=O)/C(C)=C\C=C\C(C)C(O)C(C)C(O)C(C)C(OC(C)=O)C1C)C4=O)OCC(=O)O2 (configuration not stated)	–	–	–	MIC (Escherichia coli [3]; [6]): 75 µg/mL (≈ 99.5 µM)
COC(=O)C1=C2NC(=O)/C(C)=C\C=C\C(C)C(O)C(C)C(O)C(C)C(OC(C)=O)C(C)C(OC)/C=C/OC3(C)Oc4c(C)c(O)c(c(c4C3=O)C1=O)C2=O (configuration not stated)	–	–	20	–
COC1/C=C/OC2(C)Oc3c(C)c(O)c4c(c3C2=O)C(=O)C=C(NC(=O)/C(C)=C\C=C\C(C)C(O)C(C)C(O)C(C)C(OC(C)=O)C1C)C4=O (configuration not stated)	–	–	50	MIC (Escherichia coli [3]; [6]): 12 µg/mL (≈ 17.2 µM)
COC1=N\C2=CC(=O)c3c(c(O)c(C)c4c3C(=O)C(C)(O/C=C/C(OC)C(C)C(OC(C)=O)C(C)C(O)C(C)C(O)C(C)/C=C/C=C\1C)O4)C2=O (configuration not stated)	–	Not Active	–	–
COC1/C=C/OC2(C)Oc3c(C)c(O)c4c(O)c(cc(OCC(=O)Nc5ccc(I)cc5)c4c3C2=O)NC(=O)/C(C)=C\C=C\C(C)(O)C(=O)C(C)C(O)C(C)C(OC(C)=O)C1C (configuration not stated)	inactive	Not Active	–	–
COC1/C=C/OC2(C)Oc3c(C)c(O)c4c(c3C2=O)C(=O)C=C(NC(=O)C(C)CCCC(C)C(O)C(C)C(O)C(C)C(OC(C)=O)C1C)C4=O (configuration not stated)	–	–	1600	–
COC1/C=C/C2OC3(C)C4c5c(c(C)c(O)c6c5C(=O)C=C(NC(=O)/C(C)=C\C=C\C(C)C5OC(C)(C)OC(C(C)C(O)C1C)C5C)C6=O)OC43O2 (configuration not stated)	inactive	Not Active	–	–
COc1c(C)c2c3c4c(O)cc5c(c14)OC(N5)/C(C)=C\C=C\C(C)C(O)C(C)C(O)C(C)C(OC(C)=O)C(C)C(OC)/C=C/OC(C)(O2)C3=O (configuration not stated)	inactive	Not Active	–	–
COC1/C=C/OC2(C)Oc3c(C)c(O)c4c(c3C2O)C(=O)C=C(NC(=O)/C(C)=C\C=C\C(C)C2OC(C)(C)OC(C(C)C(O)C1C)C2C)C4=O (configuration not stated)	inactive	Not Active	–	–
COC1=N/C2=CC(=O)c3c(c(O)c(C)c4c3C(=O)C(C)(O/C=C/C(OC)C(C)C(OC(C)=O)C(C)C(O)C(C)C(O)C(C)\C=C/C=C\1C)O4)C2=O (configuration not stated)	inactive	–	–	–
CCN(CC)c1nc2c(s1)c1c(O)c3c(O)c(C)c4c(c32)C(=O)[C@@](C)(O/C=C/[C@H](OC)[C@@H](C)[C@@H](OC(C)=O)[C@H](C)[C@H](O)[C@H](C)[C@@H](O)[C@@H](C)/C=C/C=C(/C)C(=O)N1)O4 [RIFAMEXIL]	–	–	–	MIC (Escherichia coli [3]; [6]): 32 µg/mL (≈ 39.5 µM)
COC1/C=C/OC2(C)Oc3c(C)c(O)c4c(c3C2O)C(=O)C=C(NC(=O)/C(C)=C\C=C\C(C)C(O)C(C)C(O)C(C)C(OC(C)=O)C1C)C4=O (configuration not stated)	–	–	50	–
COC1/C=C/OC2(C)Oc3c(C)c(O)c4c(c3C2=O)C(=O)C=C(NC(=O)/C(C)=C\C(=O)C2CC2C(O)C(C)C(O)C(C)C(OC(C)=O)C1C)C4=O (configuration not stated) [TOLYPOMYCINONE]	inactive	Not Active	–	–
